From publication PMC8704707 (Pharmaceuticals, 2021)
Converted amounts (≈) assume the structure as drawn. “And” between values parts separate entries of the source, which are not always exact repeats. Equal values may be shown once. Read-outs that look alike come from different tables or passages of the source.

Legend:
[1] = tested on: Acinetobacter baumannii ATCC 19606; assay: Antibacterial microdilution broth method (EUCAST); type: cell-based
[2] = tested on: methicillin-resistant Staphylococcus aureus ATCC 43300; assay: Antibacterial microdilution broth method (EUCAST); type: cell-based; conditions: ATCC 43300 / MRSA
[3] = target: BuChE from equine serum (EqBuChE) (Equus caballus, UniProt P81908); assay: biochemical
Chain of BuChE from equine serum (EqBuChE) (P81908 whole entry): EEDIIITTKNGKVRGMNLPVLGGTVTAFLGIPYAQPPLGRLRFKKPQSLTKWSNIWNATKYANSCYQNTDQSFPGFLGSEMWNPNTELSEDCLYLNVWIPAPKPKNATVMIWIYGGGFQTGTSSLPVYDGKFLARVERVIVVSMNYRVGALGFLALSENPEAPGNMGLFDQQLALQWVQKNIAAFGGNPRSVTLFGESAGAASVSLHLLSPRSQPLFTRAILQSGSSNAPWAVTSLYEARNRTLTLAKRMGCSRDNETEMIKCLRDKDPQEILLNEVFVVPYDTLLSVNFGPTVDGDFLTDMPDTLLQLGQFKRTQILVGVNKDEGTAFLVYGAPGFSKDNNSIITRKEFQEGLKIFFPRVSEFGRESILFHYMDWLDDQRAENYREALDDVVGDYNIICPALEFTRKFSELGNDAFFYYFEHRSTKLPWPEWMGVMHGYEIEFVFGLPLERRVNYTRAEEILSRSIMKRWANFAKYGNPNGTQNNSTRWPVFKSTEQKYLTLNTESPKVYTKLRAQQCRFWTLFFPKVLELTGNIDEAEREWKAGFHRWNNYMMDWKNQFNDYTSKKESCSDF

[4] = tested on: eight human pathogenic fungi; assay: Antifungal microdilution broth method, whole panel; type: cell-based; conditions: not reported in Table 2, read-out: MIC, all fungal strains tested
[5] = tested on: Escherichia coli ATCC 25922; assay: Antibacterial microdilution broth method (EUCAST); type: cell-based
[6] = tested on: Staphylococcus epidermidis ATCC 12228; assay: Antibacterial microdilution broth method (EUCAST); type: cell-based
[7] = tested on: Staphylococcus aureus ATCC 29213; assay: Antibacterial microdilution broth method (EUCAST); type: cell-based
[8] = target: AChE from electric eel (EeAChE) (Electrophorus electricus, UniProt O42275); assay: biochemical; type: biochemical
Chain of AChE from electric eel (EeAChE) (O42275 24-633): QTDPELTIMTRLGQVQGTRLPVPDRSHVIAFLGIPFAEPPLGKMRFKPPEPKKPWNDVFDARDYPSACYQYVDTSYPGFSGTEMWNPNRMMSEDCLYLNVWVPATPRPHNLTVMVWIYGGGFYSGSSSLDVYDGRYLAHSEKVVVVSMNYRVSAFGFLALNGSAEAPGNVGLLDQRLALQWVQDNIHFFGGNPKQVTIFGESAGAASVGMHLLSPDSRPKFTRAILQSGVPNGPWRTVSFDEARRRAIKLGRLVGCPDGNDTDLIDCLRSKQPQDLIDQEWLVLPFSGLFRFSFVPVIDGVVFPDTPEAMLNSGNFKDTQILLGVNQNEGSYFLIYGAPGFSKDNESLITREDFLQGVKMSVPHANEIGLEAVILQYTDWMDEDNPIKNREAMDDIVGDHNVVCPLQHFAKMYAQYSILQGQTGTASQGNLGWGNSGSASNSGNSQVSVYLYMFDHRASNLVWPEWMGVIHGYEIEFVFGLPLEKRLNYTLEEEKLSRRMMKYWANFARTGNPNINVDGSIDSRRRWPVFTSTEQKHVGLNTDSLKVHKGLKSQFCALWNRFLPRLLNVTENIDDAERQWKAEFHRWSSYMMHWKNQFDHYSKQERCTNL

[9] = tested on: Klebsiella pneumoniae ATCC 10031; conditions: for MIC KP 24 h: 24 h incubation; for MIC KP 48 h: 48 h incubation
[10] = tested on: Enterococcus faecalis ATCC 29212; assay: Antibacterial microdilution broth method (EUCAST); type: cell-based
[11] = tested on: Pseudomonas aeruginosa ATCC 27853; assay: Antibacterial microdilution broth method (EUCAST); type: cell-based
HepG2 cells = conditions: range of tested concentrations up to 500 µM
Protocol: Cytotoxicity of the tested compounds was measured using the standard hepatic cell line HepG2. The used CellTiter 96® assay is based on the reduction of tetrazolium dye (MTS) in living cells to formazan, which is then determined colorimetrically.

Candida krusei ATCC 6258 = assay: microbe, parasite or virus in culture; type: cell-based; conditions: Pichia kudriavzevii
[12] = tested on: four Gram-positive and four Gram-negative bacterial strains; assay: Antibacterial microdilution broth method, whole panel; type: cell-based; conditions: read-out: MIC, all bacterial strains tested
[13] = tested on: Candida parapsilosis ATCC 22019; assay: microbe, parasite or virus in culture; type: cell-based; conditions: Lodderomyces parapsilosis
[14] = tested on: Trichophyton interdigitale ATCC 9533; assay: microbe, parasite or virus in culture; type: cell-based
[15] = tested on: Candida albicans ATCC 24443; assay: microbe, parasite or virus in culture; type: cell-based
[16] = tested on: Candida tropicalis ATCC 750; assay: microbe, parasite or virus in culture; type: cell-based
[17] = ATCC19606, 24 h, read-out: MIC ACI 24 h
[18] = ATCC19606, 48 h, read-out: MIC ACI 48 h
[19] = mean ± SD, n = three independent experiments, BTCh 40 µM, read-out: IC50 BuChE
[20] = ATCC25922, 24 h, read-out: MIC EC 24 h
[21] = ATCC25922, 48 h, read-out: MIC EC 48 h
[22] = ATCC12228, 24 h, read-out: MIC SE 24 h
[23] = ATCC12228, 48 h, read-out: MIC SE 48 h
[24] = ATCC29213, 24 h, read-out: MIC SA 24 h
[25] = ATCC29213, 48 h, read-out: MIC SA 48 h
[26] = mean ± SD, n = three independent experiments, ATCh 40 µM, read-out: IC50 AChE
[27] = ATCC29212, 24 h, read-out: MIC EF 24 h
[28] = ATCC29212, 48 h, read-out: MIC EF 48 h
[29] = ATCC27853, 24 h, read-out: MIC PA 24 h
[30] = ATCC27853, 48 h, read-out: MIC PA 48 h

| SMILES | MIC [1, 17] [µM] | MIC [1, 18] [µM] | MIC ([2]; 24 h, read-out: MIC MRSA 24 h) [µM] | MIC ([2]; 48 h, read-out: MIC MRSA 48 h) [µM] | IC50 [3, 19] | MIC [4] [µM] | MIC [5, 20] [µM] | MIC [5, 21] [µM] | MIC [6, 22] [µM] | MIC [6, 23] [µM] | MIC [7, 24] [µM] | MIC [7, 25] [µM] | Selectivity AChE/BuChE [8] | IC50 [8, 26] [µM] | MIC KP 24 h [9] [µM] | MIC KP 48 h [9] [µM] | MIC [10, 27] [µM] | MIC [10, 28] [µM] | MIC [11, 29] [µM] | MIC [11, 30] [µM] | other results |
| --- | --- | --- | --- | --- | --- | --- | --- | --- | --- | --- | --- | --- | --- | --- | --- | --- | --- | --- | --- | --- | --- |
| NC(=S)N/N=C/c1cc(I)cc(I)c1O [Compound 2i, (E)-2-(2-Hydroxy-3,5-diiodobenzylidene)hydrazine-1-carbothioamide] | > 500 | > 500 | 500 (≈ 224 µg/mL) | 500 (≈ 224 µg/mL) | 86.24 ± 0.39 µM | ≥ 500 | > 500 | > 500 | 250 (≈ 112 µg/mL) | 250 (≈ 112 µg/mL) | 500 (≈ 224 µg/mL) | 500 (≈ 224 µg/mL) | 0.61 | 52.22 ± 0.4 | >500 | >500 | 250 (≈ 112 µg/mL) | 250 (≈ 112 µg/mL) | > 500 | > 500 | – |
| N=C(NN)NN [1,3-diaminoguanidine, reference compound] | – | – | – | – | 283 ± 8.94 µM | – | – | – | – | – | – | – | 0.15 | – | – | – | – | – | – | – | Cytotoxicity in HepG2 in words (HepG2 cells): no significant cytotoxicity; IC50 [8]: 41.71 ± 0.23 µM |
| N=C(N)NNCc1cc(I)cc(I)c1O [Compound 2d, 2-(2-Hydroxy-3,5-diiodobenzyl)hydrazine-1-carboximidamide] | – | – | – | – | 41.5 ± 1.45 µM | – | – | – | – | – | – | – | 1.10 | 45.7 ± 1.7 | – | – | – | – | – | – | MIC (Candida krusei ATCC 6258; ATCC6258, 24 h, read-out: MIC CK 24 h): > 125 µM; MIC (Candida krusei ATCC 6258; ATCC6258, 48 h, read-out: MIC CK 48 h): > 125 µM; MIC [12]: ≥ 500 µM; MIC ([13]; ATCC22019, 24 h, read-out: MIC CP 24 h): > 125 µM; MIC ([13]; ATCC22019, 48 h, read-out: MIC CP 48 h): > 125 µM; MIC ([14]; ATCC9533, 72 h, read-out: MIC TI 72 h): 62.5 µM (≈ 27 µg/mL); MIC ([14]; ATCC9533, 120 h, read-out: MIC TI 120 h): 62.5 µM (≈ 27 µg/mL); MIC ([15]; ATCC24443, 24 h, read-out: MIC CA 24 h): > 125 µM; MIC ([15]; ATCC24443, 48 h, read-out: MIC CA 48 h): > 125 µM; MIC ([16]; ATCC750, 24 h, read-out: MIC CT 24 h): > 125 µM; MIC ([16]; ATCC750, 48 h, read-out: MIC CT 48 h): > 125 µM |
| [H]/N=C(\N)NN=Cc1ccccc1 [Compound 1a, (E)-2-Benzylidenehydrazine-1-carboximidamide] | > 500 | > 500 | > 500 | > 500 | – | ≥ 500 | > 500 | > 500 | 250 (≈ 40.5 µg/mL) | 250 (≈ 40.5 µg/mL) | 500 (≈ 81.1 µg/mL) | 500 (≈ 81.1 µg/mL) | 0.81 | – | >500 | >500 | > 500 | > 500 | > 500 | > 500 | IC50 ([3]; IC50 BuChE): 44.9 ± 0.54 µM; IC50 [8]: 36.19 ± 0.1 µM |
| NC(=O)N/N=C/c1cc(I)cc(I)c1O [Compound 2h, (E)-2-(2-Hydroxy-3,5-diiodobenzylidene)hydrazine-1-carboxamide] | > 500 | > 500 | 500 (≈ 215 µg/mL) | 500 (≈ 215 µg/mL) | 34.7 ± 0.35 µM | ≥ 500 | > 500 | > 500 | 125 (≈ 53.9 µg/mL) | 125 (≈ 53.9 µg/mL) | 250 (≈ 108 µg/mL) | 250 (≈ 108 µg/mL) | 0.88 | 30.7 ± 0.33 | >500 | >500 | > 500 | > 500 | > 500 | > 500 | – |
| [H]/N=C(\N)NN=Cc1ccc(Cl)cc1 [Compound 1d, (E)-2-(4-Chlorobenzylidene)hydrazine-1-carboximidamide] | – | – | – | – | < 20 µM and 13.9 µM | – | – | – | – | – | – | – | 3.25 | – | – | – | – | – | – | – | MIC [12]: ≥ 500 µM; IC50 [8]: 45.2 ± 1.6 µM |
| [H]/N=C(\N)NN=Cc1cc(Cl)cc(Cl)c1O [Compound 1j, (E)-2-(3,5-Dichloro-2-hydroxybenzylidene)hydrazine-1-carboximidamide] | 500 (≈ 124 µg/mL) | 500 (≈ 124 µg/mL) | 250 (≈ 61.8 µg/mL) | 250 (≈ 61.8 µg/mL) | 61.7 ± 4.33 µM | ≥ 500 | 500 (≈ 124 µg/mL) | 500 (≈ 124 µg/mL) | 250 (≈ 61.8 µg/mL) | 250 (≈ 61.8 µg/mL) | 250 (≈ 61.8 µg/mL) | 250 (≈ 61.8 µg/mL) | 0.66 | 40.8 ± 0.8 | 500 (≈ 124 µg/mL) | 500 (≈ 124 µg/mL) | 250 (≈ 61.8 µg/mL) | 250 (≈ 61.8 µg/mL) | 250 (≈ 61.8 µg/mL) | 250 (≈ 61.8 µg/mL) | – |
